# Source: patent publication US20240174639A1, “PYRIDINE DERIVATIVES USEFUL AS HCN2 MODULATORS” (King's College London, priority 2021, published 2024)
# Counter-ions that a name gives are not always drawn.
# Molecular target: T1, HCN2 (Homo sapiens, UniProt Q9UL51)
# T1 sequence (Q9UL51 1-889): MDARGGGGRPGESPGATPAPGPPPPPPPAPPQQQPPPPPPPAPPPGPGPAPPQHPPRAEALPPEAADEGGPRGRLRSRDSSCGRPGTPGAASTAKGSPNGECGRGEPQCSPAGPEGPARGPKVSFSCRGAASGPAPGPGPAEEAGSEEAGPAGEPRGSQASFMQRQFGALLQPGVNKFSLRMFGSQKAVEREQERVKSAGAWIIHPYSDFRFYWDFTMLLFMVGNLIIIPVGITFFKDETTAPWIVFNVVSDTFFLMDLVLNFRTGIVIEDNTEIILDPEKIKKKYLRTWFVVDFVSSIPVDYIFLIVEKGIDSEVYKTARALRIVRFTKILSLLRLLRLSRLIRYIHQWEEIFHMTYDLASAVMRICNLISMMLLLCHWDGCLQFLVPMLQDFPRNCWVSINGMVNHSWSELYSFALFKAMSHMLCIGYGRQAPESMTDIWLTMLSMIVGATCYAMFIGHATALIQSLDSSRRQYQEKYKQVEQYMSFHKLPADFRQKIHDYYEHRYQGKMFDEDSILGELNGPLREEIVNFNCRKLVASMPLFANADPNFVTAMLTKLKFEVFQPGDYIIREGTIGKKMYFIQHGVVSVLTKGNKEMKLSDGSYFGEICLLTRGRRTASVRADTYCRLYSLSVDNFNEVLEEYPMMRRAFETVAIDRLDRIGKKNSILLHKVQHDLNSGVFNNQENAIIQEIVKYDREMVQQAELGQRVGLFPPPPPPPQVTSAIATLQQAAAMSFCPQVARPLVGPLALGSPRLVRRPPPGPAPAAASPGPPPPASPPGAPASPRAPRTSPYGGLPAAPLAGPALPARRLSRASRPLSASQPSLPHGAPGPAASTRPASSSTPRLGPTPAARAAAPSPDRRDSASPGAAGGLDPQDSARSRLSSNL
# Assay: HCN2 assay using PatchXpress 7000A (Example 50A)
# Format: cell-based
# Conditions: PatchXpress protocol (PX)
# From the text: Solutions for recording HON currents were:
# For HCN1 and HCN2, the pulse protocol involved stepping from a holding potential of −30 mV to −110 mV (see FIG. 1A) for 2 seconds to evoke the current. The membrane voltage was then stepped back to −30 mV for a further 8 seconds. This sequence was evoked repeatedly every 10 seconds throughout the experiment, starting prior to drug (Control A) and during cumulative additions of 5 increasing compound concentrations, then finally a 100% inhibiting concentration of cesium chloride (CsCl, 3 mM).
# The peak inward current measured at the end of the pulse to −110 mV (HCN1 and HCN2) or −130 mV (HCN4) was measured and any leak current subtracted to calculate the HCN current. The HCN current amplitude was measured after each control or compound addition and normalized to the control amplitude (Control A).
# All experiments were performed at room temperature (approximately 22° C.).
# Each test compound concentration was applied to the cell for seven (7) minutes, at which point the next cumulative concentration was applied. 3 mM CsCl was applied to each cell for 2 minutes at the end of each experiment (Control B) to determine 100% inhibition level of the HCN current.
row,Compound,IC50 [µM]
1,"Cc1ccc(F)c(C[C@H](N)c2ncccc2-n2ncc3ccccc32)n1 [Example 11, (S)-1-[3-(1H-indazole-1-yl)pyridine-2-yl]-2-(3-fluoro-6-methyl-pyridine-2-yl)ethan-1-amine hydrochloride]",0.16
2,"N[C@@H](Cc1cccc(-c2cn[nH]c2)n1)c1ncccc1-n1ncc2ccccc21 [Example 12, (S)-1-[3-(1H-indazole-1-yl)pyridine-2-yl]-2-[6-(1H-pyrazol-4-yl)-pyridine-2-yl)ethan-1-amine hydrochloride]",> 10
3,"N[C@@H](Cc1cccc(OCCO)n1)c1ncccc1-n1ncc2ccccc21 [Example 13, (S)-2-[(6-{2-[3-(1H-Indazol-1-yl)pyridine-2-yl]-2-aminoethyl}-pyridine-2-yl)oxy]-ethan-1-ol hydro-chloride]",> 10
4,"N[C@@H](Cc1cccc(CCO)n1)c1ncccc1-n1ncc2ccccc21 [Example 14, (S)-2-(6-{2-[3-(1H-Indazol-1-yl)pyridine-2-yl]-2-aminoethyl}-pyridine-2-yl)ethan-1-ol hydrochloride]",3.7
5,"NC(=O)c1ccc(F)c(C[C@H](N)c2ncccc2-n2ncc3ccccc32)n1 [Example 19, (S)-6-{2-[3-(1H-ind-azol-1-yl)pyridine-2-yl]-2-aminoethyl}-5-fluoropyridine-2-carboxamide hydro-chloride]",6.9
6,"NC(=O)c1nc(C[C@H](N)c2ncccc2-n2ncc3ccccc32)ccc1F [Example 27, (S)-6-{2-[3-(1H-ind-azol-1-yl)pyridine-2-yl]-2-aminoethyl}-3-fluoropyridine-2-carboxamide hydro-chloride]",> 10
7,"CN(C)C(=O)c1ccc(F)c(C[C@H](N)c2ncccc2-n2ncc3ccccc32)n1 [Example 29, (S)-6-{2-[3-(1H-ind-azol-1-yl)pyridine-2-yl]-2-aminoethyl}-5-fluoro-N,N-dimethylpyridine-2-carboxamide hydro-chloride]",2.6
8,"CS(=O)(=O)c1cccc(C[C@H](N)c2ncccc2-n2ncc3ccccc32)n1 [Example 49, (S)-1-[3-(1H-indazole-1-yl)pyridine-2-yl]-2-(6-methylsulfonyl-pyridine-2-yl)ethan-1-amine hydrochloride]",~10
